In experiment [1] the test system is pancreatic EBs induced by Pdx1 and Ngn3 (Tet-pdx1/ngn3 ES cells). Kind of experiment: C-peptide secretion assay (RIA) of EBs stimulated with secretagogues. Particulars: floating EBs with Dox, SFD without N2 and RA, stimulated 1 hour in HKRB buffer; for stimulation of C-peptide secretion: KCl 30 mM, Forskolin 10 μM, IBMX 0.5 mM; for response of C-peptide secretion to stimulation: glucose 20 mM, tolbutamide 100 μM. In kind it is cell-based, mouse. The method, then: Tet-pdx1/ngn3 ES cells were cultured in SFD conditions. Pdx1 and Ngn3 expression was induced with (Dox+) or without (Dox−) Dox after day 4, and cells were harvested at the indicated time points. (A) CXCR4/c-kit^−/− or CXCR4/c-kit^+/+ cells were sorted in day 4 EBs by using a FACS sorter. Sorted cells were reaggregated and replated at day 6 on gelatin coated plates. EBs were harvested at day 9. Ins1 mRNA levels were quantified by real time PCR and normalized to the 18S mRNA levels. (B) N2 media was added to or omitted from the SFD media for days 0-14. B27, with or without retinoic acid (RA), was combined in SFD for days 0-4 and for day 4-14 (also +/−N2). Ins1 mRNA levels were quantified by real time PCR and normalized to the 18S mRNA levels. (C) Tet-pdx1/ngn3 ES cells were cultured in SFD condition without N2 and RA for 18 days. Cytoplasmic insulin was stained and analyzed by FACS. (D) Floating EBs were cultured in SFD without N2 and RA for 18 days, with or without Dox. EBs were incubated in SFD without N2 and RA for 24 hours and supernatants were harvested. C-peptide, glucagon and somatostatin were measured by RIA or EIA. (E) Floating EBs were cultured in SFD without N2 and RA for 19 days and then were unstimulated or stimulated with KCl (3 or 30 mM), glucose (20 mM), tolbutaminde (100 μM), Forskolin (10 μM) or IBMX (0.5 mM) in HKRB buffer for 1 hour. Supernatants were harvested and C-peptide was measured by RIA.
After culturing EBs for 17-18 days in SFD conditions without N2 and RA with or without Dox (1 μg/ml) as described above, the medium was changed to fresh SFD media containing 2 mM glutamine. The EBs were then incubated for 24 hours as indicated, and the conditioned medium was collected for assay. Concentrations of glucagon and somatostatin in the conditioned medium were measured using enzyme immunoassays (EIAs) specific to glucagon (Yanaihara) or somatostatin (Phoenix Pharmaceuticals) according the manufacturer's instructions. C-peptide was measured by radioimmunoassay (RIA) specific to C-peptide (Linco). For C-peptide secretion assay, day 18 EBs were washed with media were incubated in HEPES-balanced Krebs-Ringer bicarbonate (HKRB) buffer (20 mM HEPES, 103 mM NaCl, 4.8 mM KCl, 0.5 mM CaCl2, 1.2 mM MgSO4, 1.2 mM KH2PO4, 25 mM NaHCO3, 2 mM glucose, pH 7.4) with or without stimulations for 1 hour. C-peptide in the supernatant was measured by a specific RIA. Total protein amounts of EBs in each sample were evaluated by BCA assay and secretion levels for C-peptide, glucagons and somatostatin were adjusted by protein amount.
To evaluate pancreatic hormone secretion, pancreatic EBs were cultured in SFD without N2 and RA for 16-18 days and then EBs were incubated in fresh SFD media for 24 hours. The secretion of pancreatic hormones such as C-peptide, glucagon and somatostatin in the supernatant was evaluated by RIA or EIA. C-peptide, somatostatin and glucagons were not detected in EBs without Dox stimulation. […] Stimulation of C-peptide secretion by treating endocrine progenitor cells with different agents for one hour was also evaluated (FIG. 6E). C-peptide secretion increased around five fold by the addition of 30 mM potassium chloride (KCl). Forskolin and IBMX, which increase intracellular cAMP, also stimulated C-peptide secretion around 2 fold and 3 fold, respectively. No response to glucose or the inhibitors of KATP channel, glibenclamide and tolbutamide, was detected.

Experiment [2] deals with Ins1 mRNA in Tet-pdx1/ngn3 Ainv ES cell-derived EBs. Description: Ins1 mRNA by real time PCR in EBs cultured in SFD conditions. In kind it is cell-based, mouse. Particulars: BMP4 (50 ng/ml) for days 4-6 with Dox, EBs harvested at day 9. How it is done: Tet-pdx1/ngn3 ES cells were cultured in SFD conditions. Pdx1 and Ngn3 expression was induced with (Dox+) or without (Dox−) Dox after day 4 and cells were harvested at the indicated time points. (A, B) Ins1 mRNA levels were quantified by a real time PCR and normalized to the 18S mRNA levels. A. Day 4 EBs were trypsinized and reaggregated with (closed circles) or without BMP4 (open squares) for days 4-6. EBs were harvested at days 6 and 9. B. At day 6, EBs were replated on gelatin coated dishes and floating EBs were transferred to low-cluster dishes at day 7. Attached monolayer EBs (open bars) and floating EBs (closed bars) were harvested at day 9. (C, D) Floating EBs were cultured in SFD conditions with (closed circles) or without (open squares) Dox. Ins1 (C) or Ins2 (D) mRNA levels were quantified by a real time PCR and normalized to the 18S mRNA levels.
For a real time PCR, commercially available assay mixes (Applied Biosystems) for Ins1 (Mm01259683_g1), Ins2 (Mm0731595_gH) and 18S (Hs99999901_s1) were used to quantify mRNA levels, and PCR was performed using a Prism 7700 Sequence Detector (Applied Biosystems). […]
Tet-pdx1/ngn3 Ainv ES cells were cultured in SFD for 2 days and then activin was added for days 2-4 to induce endoderm differentiation. […] Without Dox treatment, Ins1 mRNA was not detected at day 6 or day 9. […]
(Quantitative PCR measures a nucleic acid by following its amplification.)

As for `C=C[C@@]1(C)CC(=O)[C@]2(O)[C@@]3(C)[C@@H](O)CCC(C)(C)[C@@H]3[C@H](O)[C@H](OC(C)=O)[C@@]2(C)O1` [Forskolin], in experiment [1], the “stimulation of C-peptide secretion” value is “around 2 fold”.

For the molecule `CC(C)Cn1c(=O)n(C)c(=O)c2[nH]cnc21` [IBMX], the “stimulation of C-peptide secretion” value in experiment [1] is listed as approximately 3 fold. On the same count and under the same terms, the entry for `[Cl-].[K+]` [KCl, potassium chloride] is “around five”.

With `COc1ccc(Cl)cc1C(=O)NCCc1ccc(S(=O)(=O)NC(=O)NC2CCCCC2)cc1` [glibenclamide], the “response of C-peptide secretion to stimulation” value in experiment [1] is given as “No response”. On the same count and under the same terms, in the case of `CCCCNC(=O)NS(=O)(=O)c1ccc(C)cc1` [tolbutamide] it was “No response”.

B1: BMP4: growth factor BMP-4 (R&D Systems) added to SFD medium days 4-6 (protein, UniProt P12644 293-408, looked up)
Bone morphogenetic protein 4: SPKHHSQRARKKNKNCRRHSLYVDFSDVGWNDWIVAPPGYQAFYCHGDCPFPLADHLNSTNHAIVQTLVNSVNSSIPKACCVPTELSAISMLYLDEYDKVVLKNYQEMVVEGCGCR
With B1, the “Ins1 mRNA level normalized to 18S mRNA” value in experiment [2] was 3.1 % of βTC6.

The record behind these values is US20090280096A1, “PANCREATIC ENDOCRINE PROGENITOR CELLS DERIVED FROM PLURIPOTENT STEM CELLS” (priority 2008, published 2009).
